In patent EP4623908A1, “USE OF (-)-EPIGALLOCATECHIN GALLATE COMPOUND” (CF Pharmtech, Inc., priority 2022, dated 2024):

Experiment: Single-dose escalation study of nebulized inhalation solution in healthy volunteers, safety and pharmacokinetics (Example 7)
Format: in vivo
Conditions: for subjects with local symptoms in the oropharynx and respiratory tract: nebulized inhalation solution, single dose
Method: A randomized, double-blind, placebo-controlled clinical study was conducted with 22 healthy volunteers to evaluate the safety and tolerability of single-dose inhalation of EGCG nebulized solution, as well as pharmacokinetic characteristics, compared to placebo nebulized solution and oral EGCG capsules.
Test group: EGCG nebulized inhalation solution (the EGCG nebulized solution containing EDTA as described in Example 6), with an initial concentration of 10mg/mL, diluted to different doses before administration.
Oral control group: EGCG capsules, each weighing 150mg, with EGCG content approximately 94% of the total weight.
Refer to Table 6 below. The oral control group was randomly assigned 4 volunteers to receive 600mg of EGCG capsules (4 capsules, approximately 564mg of EGCG).
The EGCG nebulized inhalation treatment included 3 groups: • 1. 3mg dose group: 1mL of the starting drug solution was diluted to 1mg/mL, and 3mL was administered via the nebulizer. • 2. 10mg dose group: 1mL of the starting drug solution was diluted to 3.33mg/mL, and 3mL was administered via the nebulizer. • 3. 30mg dose group: The starting drug solution was not diluted, and 3mL was directly administered via the nebulizer.
Each nebulized inhalation dose group was randomly assigned 6 volunteers, starting with the lowest dose. In each group, 2 volunteers were designated as sentinels (1:1 randomization, 1 in the EGCG nebulized inhalation group and 1 in the placebo group), observed for ≥24 hours, and the study investigator performed a safety assessment. After permission from the investigator, the remaining 4 volunteers in each group received their assigned treatment (3:1 randomization, 3 in the EGCG nebulized inhalation group and 1 in the placebo group). Table 6: Group Information for Oral Control and EGCG Nebulized Inhalation Administration Groups.
Blood samples were collected from the subjects at 13 time points: pre-dose (within 1 hour before administration), and post-dose at 15 minutes, 30 minutes, 1 hour, 1.5 hours, 2 hours, 3 hours, 4 hours, 6 hours, 8 hours, 10 hours, 12 hours, and 24 hours. A total of 4mL of blood was collected at each time point, and plasma was extracted for pharmacokinetic (PK) testing, backup, and metabolite identification.
Adverse event (AE) monitoring; physical examination; vital signs (body temperature, blood pressure, pulse, respiration), blood oxygen saturation; heart function; lung function.

[1] = human plasma, after inhalation compared to oral administration

O=C(O[C@@H]1Cc2c(O)cc(O)cc2O[C@@H]1c1cc(O)c(O)c(O)c1)c1cc(O)c(O)c(O)c1 [EGCG, (-)-Epigallocatechin gallate]
overall tolerability (after nebulized inhalation 3mg/10mg/30mg): overall tolerability was good | physical examination, vital signs, heart function, and lung function (all subjects (nebulized 3mg/10mg/30mg, oral capsules 600mg)): No significant abnormalities | inhalation Cmax relative to the oral Cmax (human plasma, 10mg nebulized dose group vs oral capsules 600mg): about 1/227 | Cmax level [1]: lower | time to reach peak plasma concentration (Tmax) [1]: later | subjects with local symptoms in the oropharynx and respiratory tract (3mg dose group): no subjects | subjects with local symptoms in the oropharynx and respiratory tract (10mg dose group, mild): 1 out of 4 | subjects with local symptoms in the oropharynx and respiratory tract (30mg dose group, mild): 2 out of 4
